Test results taken from paper PMC7577125 (Antimicrobial Agents and Chemotherapy, 2020).

Legend:
HBV [1] = experiment: HBV infection of HepG2-NTCP cells; type: cell-based; settings: Hepatitis B virus
HBV [2] = experiment: HBV infection of primary human hepatocytes (PHHs); type: cell-based; settings: Hepatitis B virus, Hepatocyte, PHH
HBV cccDNA = experiment: cccDNA formation assay in infected PHH cells (Southern blot); type: cell-based; settings: Hepatitis B virus, 96 h, 4 days, read-out: cccDNA % of Control
HBV capsid DNA = experiment: Incoming capsid assay in HepG2-NTCP cells; type: cell-based; settings: Hepatitis B virus, 3 h, read-out: Capsid DNA % of Control
HBV genotype D = experiment: microbe, parasite or virus in culture; type: cell-based; settings: Hepatitis B virus, read-out: Mean antiviral EC50
HBV Cp D29G = experiment: microbe, parasite or virus in culture; type: cell-based, Hepatitis B virus
HBV Cp T109M = experiment: microbe, parasite or virus in culture; type: cell-based, Hepatitis B virus
in vitro [3] = settings: for half-life at 1 μM: hepatocytes; for half-life at 0.5 μM: microsomes
Protocol: In vitro intrinsic clearance (CLint) was determined as follows. […] The calculated CLint was determined from the relationship CLint = k × (volume of incubation in ml/mg microsomal protein) × (mg protein in liver/g liver weight) × (g liver weight/kg body weight). The values for liver weights, body weights, as well as hepatic blood flows (QH) across species were obtained from data reported previously by Davies and Morris ([28]). Values for liver microsome protein/liver weight for mouse, rat, dog, and monkey were […] ([27]), and that for human was 33 mg/g. The calculation used for the prediction of hepatic clearance (CLpred) is CLpred = (QH × CLint)/(QH + CLint).

[4] = tested on: Huh7, HepG2, HeLa H1A, HEK293, NCI-H226, MOLT-4, PBMC
[5] = in vivo
in vitro [6] = settings: human
in vitro [7] = settings: rat, hepatocytes
HBV [8] = experiment: microbe, parasite or virus in culture; settings: Hepatitis B virus
CYP3A = CYP3A (Homo sapiens, UniProt P08684); experiment: CYP inhibition in human liver microsomes, 3A
CYP3A, sequence (P08684 2-503): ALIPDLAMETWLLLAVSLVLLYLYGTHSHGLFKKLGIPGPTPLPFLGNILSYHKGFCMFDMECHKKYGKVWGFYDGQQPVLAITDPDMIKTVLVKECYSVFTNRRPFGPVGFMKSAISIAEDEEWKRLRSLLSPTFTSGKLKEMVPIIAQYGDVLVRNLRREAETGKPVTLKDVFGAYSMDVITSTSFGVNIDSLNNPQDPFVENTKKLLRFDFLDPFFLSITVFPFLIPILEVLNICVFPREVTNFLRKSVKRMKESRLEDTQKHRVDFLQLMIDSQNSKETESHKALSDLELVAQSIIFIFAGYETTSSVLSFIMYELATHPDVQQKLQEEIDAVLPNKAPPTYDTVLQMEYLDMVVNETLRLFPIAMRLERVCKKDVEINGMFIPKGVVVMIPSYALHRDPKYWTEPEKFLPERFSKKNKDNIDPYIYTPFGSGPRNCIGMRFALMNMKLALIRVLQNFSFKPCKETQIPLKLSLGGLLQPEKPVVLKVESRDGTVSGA

[9] = tested on: herpes simplex virus 1, human rhinovirus 16, influenza A virus; experiment: Cell protection assays with 3 unrelated viruses; settings: concentrations of up to 10 μM
HBV [10] = experiment: HBV DNA replication in cell culture systems (HepAD38, HepG2-NTCP, PHHs), summary; settings: Hepatitis B virus, HePAD38, read-out: EC50, inhibition of HBV DNA replication
Excerpt: The first is an HBV-inducible cell line (HepAD38) that bears a single “1.1 copy” of the HBV genome (genotype D, subtype ayw) under the control of a cytomegalovirus (CMV) tetracycline (Tet)-off promoter ([13]), and the second utilizes HBV infection of either a HepG2-derived cell line stably expressing the HBV entry receptor sodium taurocholate cotransporting polypeptide (NTCP) (HepG2-NTCP) or primary human hepatocytes (PHHs). The primary marker measured for inhibition of HBV replication in the cell culture systems is viral DNA.
HepAD38 cells were trypsinized and then washed three times with phosphate-buffered saline (PBS) to remove traces of Tet. Cells were seeded into 96-well plates in assay medium (DMEM–F-12 medium with 2% Tet-free FBS) and treated with compounds. Supernatants and cells were harvested at 5 days postinduction.
HepG2-NCTP cells were infected with purified HepAD38 virus at a multiplicity of infection (MOI) of 50 in infection medium (DMEM, 5% FBS, 2% DMSO, 5% PEG 8000). Following infection, HepG2-NTCP cells were washed twice and switched to HepG2-NTCP treatment medium (DMEM, 5% FBS). PHHs were infected with HBV at an MOI of 50 in infection medium and grown in PHH maintenance medium for the duration of the experiment. Compounds were added after infection. […] Intracellular HBV DNA and pgRNA were measured by branch DNA (bDNA) assays (Thermo Fisher).

[11] = total intracellular viral DNA, read-out: Mean EC50, viral DNA
[12] = Hepatitis B virus, Huh-7, read-out: Mean EC50

With `O=C(NCc1cnc(C(F)(F)F)s1)c1ccc2c(c1)NC(=O)c1ccccc1S2(=O)=O` [ABI-H0731] the EC50 (HBV [1]; read-out: Mean EC50, HBeAg) was 4.95 µM, the EC50 (HBV [1]; read-out: Mean EC50, HBsAg) was 7.3 µM and the EC50 (HBV [1]; read-out: Mean EC50, pgRNA) was 2.68 µM. It also gave an EC50 (HBV [1]; [11]) of 0.307 ± 0.041 µM, an EC50 (HBV [2]; read-out: Mean EC50, HBeAg) of 2.21 µM and an EC50 (HBV [2]; read-out: Mean EC50, HBsAg) of 3 µM. The EC50 (HBV [2]; read-out: Mean EC50, pgRNA) was 1.84 µM, the EC50 (HBV [2]; [11]) was 0.154 ± 0.018 µM and the activity at […] (HBV cccDNA; 0.37 μM) was 90%. The activity at 1.11 µM (HBV cccDNA; 1.11 μM) was 80%, the activity at 3.33 µM (HBV cccDNA; 3.33 μM) was 56% and the activity at 10 µM (HBV cccDNA; 10.0 μM) was 15%. The activity at 0.04 µM (HBV capsid DNA; 0.04 μM) was 105%, the activity at 0.12 µM (HBV capsid DNA; 0.12 μM) was 107% and the activity at […] (HBV capsid DNA; 0.37 μM) was 103%. It also gave an activity at 1.11 µM (HBV capsid DNA; 1.11 μM) of 91%, an activity at 3.33 µM (HBV capsid DNA; 3.33 μM) of 73% and an activity at 10 µM (HBV capsid DNA; 10.0 μM) of 10%. For the same molecule, the EC50 (HBV genotype D) was 0.142 ± 0.048 µM, the Fold shift (HBV Cp D29G; D29G vs wild type) was 20 fold and the EC50 (HBV Cp D29G; [12]) was 2.96 µM. For the same molecule, the EC50 (HBV Cp T109M; [12]) was over 10 µM, the Fold shift (HBV Cp T109M; T109M vs wild type) was over 68 fold and the “% LBF” value (in vitro [3]; cynomolgus monkey, 0.5 μM) was 15%. The CLpred (in vitro [3]; cynomolgus monkey, 0.5 μM) was 4.7 mL/min/kg, the “% LBF” value (in vitro [3]; cynomolgus monkey, 1 μM) was 15% and the CLpred (in vitro [3]; cynomolgus monkey, 1 μM) was 4.7 mL/min/kg. The “% LBF” value (in vitro [3]; dog, 0.5 μM) was 65%, the CLpred (in vitro [3]; dog, 0.5 μM) was 20 mL/min/kg and the “% LBF” value (in vitro [3]; dog, 1 μM) was 81%. For the same molecule, the CLpred (in vitro [3]; dog, 1 μM) was 25 mL/min/kg, the half-life at 1 μM (in vitro [3]; dog) was 0.667 h and the half-life at 0.5 μM (in vitro [3]; dog) was 0.622 h. For the same molecule, the “% LBF” value (in vitro [3]; human, 0.5 μM) was 13%, the CLpred (in vitro [3]; human, 0.5 μM) was 2.8 mL/min/kg and the “% LBF” value (in vitro [3]; human, 1 μM) was 11%. The CLpred (in vitro [3]; human, 1 μM) was 2.3 mL/min/kg, the half-life at 1 μM (in vitro [3]; human) was 11.6 h and the half-life at 0.5 μM (in vitro [3]; human) was 6.27 h. For the same molecule, the half-life at 1 μM (in vitro [3]; monkey) was 7.92 h, the half-life at 0.5 μM (in vitro [3]; monkey) was 5.98 h and the “% LBF” value (in vitro [3]; mouse, 0.5 μM) was 21%. For the same molecule, the CLpred (in vitro [3]; mouse, 0.5 μM) was 19 mL/min/kg, the half-life at 0.5 μM (in vitro [3]; mouse) was 2.33 h and the “% LBF” value (in vitro [3]; rat, 0.5 μM) was 12%. For the same molecule, the CLpred (in vitro [3]; rat, 0.5 μM) was 7.9 mL/min/kg, the half-life at 0.5 μM (in vitro [3]; rat) was 4.62 h and the “CC50 relative to VR EC50” value [4] was over 50 fold. For the same molecule, the “target organ or dose-limiting toxicities” value [5] was “no specific target organ or dose-limiting toxicities”, the recovery at 4 days, 10 μM (in vitro [6]) was 67 to 84% and the half-life at 1 μM (in vitro [7]) was 1.75 h. It also gave an EC50 (HBV [8]; HePAD38, HepAD38, 2% HPL) of 0.2 ± 0.005 µM, an EC50 (HBV [8]; HePAD38, HepAD38, 20% HPL) of 0.522 ± 0.04 µM and an IC50 (CYP3A; probe midazolam) of 82.3 µM. The IC50 (CYP3A; probe test (so in the source)) was 46.2 µM, the “inhibitory activity against unrelated viruses” value [9] was “no significant inhibitory activity” and the EC50 (HBV [10]) was 0.173 to 0.307 µM.
